Experimental findings from article PMC6268726, “Inhibition of 11β-HSD1 by Tetracyclic Triterpenoids from Euphorbia kansui” (Molecules, 2012) are described below.

The structures appear in SMILES notation. pIC50: −log10 of the molar value.

One series addresses T1, human 11β-HSD1 (Homo sapiens, UniProt P28845).
T1 construct: the full-length cDNAs of human or marine 11β-HSD1 and 11β-HSD2 were isolated from the cDNA libraries; made in house; host or cells: HEK-293 (stably transfected, pcDNA3); microsomal fraction
As to the kind of experiment: Inhibition of human 11β-HSD1, SPA with microsomes from transfected HEK-293 cells. The class given is biochemical. The note with it: for pIC50: microsomes, NADPH, [3H]cortisone, n = 2; for Human HSD2/HSD1: selectivity ratio IC50 human 11β-HSD2 / human 11β-HSD1. The source says: (§1) Glucocorticoid hormones play important roles in many biological and physiological processes, including regulation of energy metabolism; inflammatory, immune and stress responses; and cardiovascular homeostasis. The action of glucocorticoid on target tissue is not inevitable dependent on the circulating levels, but is regulated in a tissue-specific manner by the 11β-hydroxysteroid dehydrogenase enzymes (11β-HSD1 and 11β-HSD2), which catalyze the interconversion of active 11-hydroxyglucocorticoids (cortisol in human and corticosterone in rodent) and their respective inert 11-keto forms (cortisone in human and 11-dehyfrocorticosterone in rodent). […] 11β-HSD2 is predominantly expressed in aldosterone target cells such as kidney and colon, where it catalyses the inactivation of glucocorticoids, thereby preventing excessive activation of the mineralocorticoid receptor and sequelae including sodium retention, hypokalemia, and hypertension. We tested the inhibitory effect of compounds on both human and mouse 11β-HSD1 and 11β-HSD2. All tests were done duplicate with glycyrrhizininc acid (human and mouse 11β-HSD1, human 11β-HSD2) and carbenoxolone (mouse 11β-HSD2) as positive control. IC50 (X […] S.D., n = 2) values were calculated by using Prism Version 4 (GraphPad Software, San Diego, CA, USA.).
(§2) Inhibition of compounds on human or mouse 11β-HSD1 and 11β-HSD2 enzymatic activities were determined by the scintillation proxitimity assay (SPA) using microsomes containing 11β-HSD1 or 11β-HSD2 according to the previous studies. Briefly the full-length cDNAs of human or marine 11β-HSD1 and 11β-HSD2 were isolated from the cDNA libraries provided by NIH Mammalian Gene Collection and cloned into pcDNA3 expression vector. HEK-293 cells were transfected with the pcDNA3-dericed expression plasmid and selected by cultivation in the presence of 700 μg/mL of G418. The microsomal fraction overexpressing 11β-HSD1 or 11β-HSD2 was prepared from the HEK-293 cells stable transfected with either 11β-HSD1 or 11β-HSD2 and used as the enzyme source for SPA. Microsomes containing human or mouse 11β-HSD1 was incubated with NADPH and [3H]cortisone, then the product, [3H]cortisol was specifically captured by a monoclonal antibody coupled to protein A-coated SPA beads. The 11β-HSD2 screening was performed by incubating 11β-HSD2 microsomes with [3H]cortisol and NAD^+ and monitoring substrate disappearance. IC50 (X ± S.D., n = 2) values were calculated by using Prism Version 4 (GraphPad Software, San Diego, CA, USA.) with glycyrrhizininc acid and carbenoxolone as positive control.

In a further series the target is T2, mouse 11β-HSD2 (Mus musculus, UniProt P51661).
T2 construct: the full-length cDNAs of human or marine 11β-HSD1 and 11β-HSD2 were isolated from the cDNA libraries; made in house; host or cells: HEK-293 (stably transfected, pcDNA3); microsomal fraction
T2 sequence (P51661 1-386): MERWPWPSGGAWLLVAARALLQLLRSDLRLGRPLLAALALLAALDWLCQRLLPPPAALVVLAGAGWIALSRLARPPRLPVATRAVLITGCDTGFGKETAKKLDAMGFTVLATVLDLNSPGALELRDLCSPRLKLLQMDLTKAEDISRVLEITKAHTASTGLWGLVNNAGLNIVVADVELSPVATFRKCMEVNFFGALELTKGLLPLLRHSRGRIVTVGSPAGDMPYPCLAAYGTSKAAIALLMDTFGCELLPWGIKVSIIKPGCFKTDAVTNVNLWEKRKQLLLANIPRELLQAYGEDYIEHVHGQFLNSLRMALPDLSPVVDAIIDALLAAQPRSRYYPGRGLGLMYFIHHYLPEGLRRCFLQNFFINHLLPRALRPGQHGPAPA
Briefly: Inhibition of mouse 11β-HSD2, SPA with microsomes from transfected HEK-293 cells. The class given is biochemical. Particulars: [3H]cortisol, NAD+, n = 2.
Source text: as §1, §2

The target in the next series is T3, human 11β-HSD2 (Homo sapiens, UniProt P80365).
T3 construct: the full-length cDNAs of human or marine 11β-HSD1 and 11β-HSD2 were isolated from the cDNA libraries; made in house; host or cells: HEK-293 (stably transfected, pcDNA3); microsomal fraction
T3 sequence (P80365 1-405): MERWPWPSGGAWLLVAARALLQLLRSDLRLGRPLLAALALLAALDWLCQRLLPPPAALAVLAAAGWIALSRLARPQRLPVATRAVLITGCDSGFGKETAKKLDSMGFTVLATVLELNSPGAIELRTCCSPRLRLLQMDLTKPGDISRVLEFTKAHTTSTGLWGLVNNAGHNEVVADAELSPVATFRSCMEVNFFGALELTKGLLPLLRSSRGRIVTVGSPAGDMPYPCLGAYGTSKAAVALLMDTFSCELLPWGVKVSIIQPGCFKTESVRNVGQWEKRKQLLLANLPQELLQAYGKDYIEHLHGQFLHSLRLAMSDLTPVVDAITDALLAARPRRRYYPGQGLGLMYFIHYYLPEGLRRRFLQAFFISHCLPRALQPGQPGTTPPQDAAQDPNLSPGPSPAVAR
Briefly: Inhibition of human 11β-HSD2, SPA with microsomes from transfected HEK-293 cells. The format is biochemical. Particulars: [3H]cortisol, NAD+, n = 2.
Source text: as §1, §2

In another series the target is T4, mouse 11β-HSD1 (Mus musculus, UniProt P50172).
T4 construct: the full-length cDNAs of human or marine 11β-HSD1 and 11β-HSD2 were isolated from the cDNA libraries; made in house; host or cells: HEK-293 (stably transfected, pcDNA3); microsomal fraction
T4 sequence (P50172 whole entry): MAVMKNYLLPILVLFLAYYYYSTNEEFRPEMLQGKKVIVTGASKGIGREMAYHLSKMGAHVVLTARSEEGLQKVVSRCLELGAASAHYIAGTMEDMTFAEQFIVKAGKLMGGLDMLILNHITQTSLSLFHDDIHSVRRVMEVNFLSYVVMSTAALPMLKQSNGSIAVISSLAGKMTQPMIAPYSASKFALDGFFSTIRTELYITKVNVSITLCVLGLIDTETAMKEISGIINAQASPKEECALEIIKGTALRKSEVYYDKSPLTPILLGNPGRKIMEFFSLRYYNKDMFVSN
As to the kind of experiment: Inhibition of mouse 11β-HSD1, scintillation proximity assay (SPA) with microsomes from transfected HEK-293 cells. Particulars: for pIC50: microsomes, NADPH, [3H]cortisone, n = 2; for Mouse HSD2/HSD1: selectivity ratio IC50 mouse 11β-HSD2 / mouse 11β-HSD1. The format is biochemical.
Source text: as §1, §2

T1 sequence (P28845 whole entry): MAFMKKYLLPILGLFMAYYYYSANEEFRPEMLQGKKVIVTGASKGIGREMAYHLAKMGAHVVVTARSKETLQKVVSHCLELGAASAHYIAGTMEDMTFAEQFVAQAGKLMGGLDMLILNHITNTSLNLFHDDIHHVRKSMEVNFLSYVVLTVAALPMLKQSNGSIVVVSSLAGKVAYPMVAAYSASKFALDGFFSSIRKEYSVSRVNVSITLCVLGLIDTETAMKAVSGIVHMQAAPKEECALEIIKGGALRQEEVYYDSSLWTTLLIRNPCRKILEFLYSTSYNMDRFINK

With `C=C(CC[C@](C)(O)[C@@H]1CC[C@]2(C)C3CCC4C(C)(C)[C@@H](O)CC[C@]4(C)C3CC[C@@]12C)C(C)C` (stereo partly drawn) [Compound 1, Euphane-3β,20-dihydroxy-24-ene], the pIC50 is 7.46 against human 11β-HSD1, less than 3.00 on mouse 11β-HSD2, 5.09 on human 11β-HSD2 and 7.11 against mouse 11β-HSD1. Besides, the “Human HSD2/HSD1” value at human 11β-HSD1 stood at 234.6. For the same compound, at mouse 11β-HSD1, the “Mouse HSD2/HSD1” value is recorded as greater than 12748.
As to `CC(C)=CCC[C@@H](C)[C@@H]1CC[C@]2(C)C(=O)[C@]3(CC[C@@]12C)[C@@H](O)CC1C(C)(C)[C@@H](O)CC[C@@]13C` (stereo partly shown) [Compound 2, Kansuinone], the pIC50 at human 11β-HSD1 was 5.95; against mouse 11β-HSD2, less than 3.00; on human 11β-HSD2, 5.58; on mouse 11β-HSD1, 5.97. In addition, the “Human HSD2/HSD1” value on human 11β-HSD1 was 2.35. In addition, the “Mouse HSD2/HSD1” value at mouse 11β-HSD1 is listed as greater than 928.
In the case of `CC(C)=CCC[C@@H](C)[C@@H]1CC[C@]2(C)C3=C(CC[C@@]12C)[C@@]1(C)CC[C@H](O)C(C)(C)[C@@H]1CC3` [Compound 3, Euphol], the pIC50 against human 11β-HSD1 was 7.79; against mouse 11β-HSD2, less than 3.00; against human 11β-HSD2 it was 6.40; at mouse 11β-HSD1, 7.09. Moreover, the “Human HSD2/HSD1” value on human 11β-HSD1 amounted to 24.6. Also, the “Mouse HSD2/HSD1” value at mouse 11β-HSD1 is reported as greater than 12419.
With `CC(C)=CCCC(C)C1CCC2(C)C3=C(CCC12C)C1(C)CCC(O)C(C)(C)C1CC3=O` (stereo not shown) [Compound 4, Kansenone], the pIC50 against human 11β-HSD1 was 8.55; on mouse 11β-HSD2, less than 3.00; against human 11β-HSD2, 6.97; at mouse 11β-HSD1, 7.87. Further, the “Human HSD2/HSD1” value at human 11β-HSD1 turned out to be 38. In addition, the “Mouse HSD2/HSD1” value on mouse 11β-HSD1 is greater than 74850.
`C=C(C)[C@@H](O)CC[C@@H](C)[C@@H]1CC[C@]2(C)C3=C(CC[C@@]12C)[C@@]1(C)CC[C@H](O)C(C)(C)C1CC3` (stereo partly drawn) [Compound 5, (24R)-Eupha-8,25-diene-3β,24-diol]: the pIC50 was 7.58 against human 11β-HSD1, less than 3.00 on mouse 11β-HSD2, 5.77 against human 11β-HSD2 and 7.31 against mouse 11β-HSD1. In addition, the “Human HSD2/HSD1” value on human 11β-HSD1 worked out at 63.7. Also, the “Mouse HSD2/HSD1” value at mouse 11β-HSD1 is reported as greater than 20218.
The compound `C[C@H](C/C=C/C(C)(C)O)[C@@H]1CC[C@]2(C)C3=C(CC[C@@]12C)[C@@]1(C)CC[C@H](O)C(C)(C)C1CC3` (stereo partly drawn) [Compound 6, (20R,23E)-Eupha-8,23-diene-3β,25-diol] displayed a melting point of 132 to 133 °C. For the same compound, at human 11β-HSD1, the pIC50 is 7.80 and the “Human HSD2/HSD1” value is listed as 41.7. On mouse 11β-HSD2, this compound gave a pIC50 of less than 3.00. This compound also gave a pIC50 against human 11β-HSD2 of 6.18. Also, at mouse 11β-HSD1, the pIC50 is 6.53 and the “Mouse HSD2/HSD1” value is greater than 3393.
